Some test systems named below: HOP-62; HCT-15; NCI/ADR-RES; SNB-19; KM12; M14; RPMI-8226; SK-MEL-5; MOLT-4; RXF 393; SK-OV-3; Hs-578T; SF-539; NCI-H226; Malme-3M; OVCAR-8; OVCAR-5; SW-620; HOP-92; SR.
What all share (test): growth of human tumour cells (NCI), 48 h

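These data come from cells grown in 96-well plates and exposed to compound for 48 hours at five concentrations. GI50: concentration for 50% inhibition of growth.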 Active and inactive are the calls of the source. Cut-off read from the data, not from the text of the source: active = GI50 up to about 1.1 µM and inactive = higher. A value given as a limit tells only on which side of the number the result lay.

Take `Cc1n[n+](Cc2ccccc2)c2sc(N)nn12`: the GI50 in the assay on HOP-62 is > 100 µM (inactive); with HCT-15, > 100 µM; in the assay with NCI/ADR-RES, > 100 µM (inactive); in the assay with SNB-19, > 100 µM (inactive); with KM12, > 100 µM (inactive); with M14 it was > 100 µM (inactive). The GI50 is > 100 µM (inactive) in the assay on RPMI-8226; 39.4 µM (inactive) in the assay with SK-MEL-5; 58.9 µM (inactive) in the assay with MOLT-4; > 100 µM (inactive) in the assay with RXF 393; 85.9 µM (inactive) in the assay with SK-OV-3; > 100 µM (inactive) in the assay on Hs-578T. Also, the GI50 was > 100 µM (inactive) in the assay on SF-539; 74 µM (inactive) in the assay with NCI-H226; > 100 µM (inactive) in the assay on Malme-3M; > 100 µM (inactive) in the assay with OVCAR-8; > 100 µM (inactive) in the assay on OVCAR-5; 64.6 µM (inactive) with SW-620.

Regarding `O=C(Cn1c2ccc(Br)cc2c2nc3ccccc3nc21)N1CCOCC1`, the GI50 was > 100 µM (inactive) in the assay with HOP-62; > 100 µM with HCT-15; 47.9 µM (inactive) in the assay on NCI/ADR-RES; > 100 µM (inactive) in the assay on SNB-19; > 100 µM (inactive) in the assay with KM12; > 100 µM (inactive) with M14. Also, the GI50 with RPMI-8226 was > 100 µM (inactive); with SK-MEL-5, > 100 µM (inactive); with MOLT-4, > 100 µM (inactive); in the assay with RXF 393 it was 21.3 µM (inactive); in the assay on SK-OV-3, > 100 µM (inactive); in the assay with Hs-578T, 49.1 µM (inactive). The GI50 with NCI-H226 is > 100 µM (inactive); in the assay on Malme-3M, > 100 µM (inactive); in the assay with OVCAR-8 it was 44.3 µM (inactive); in the assay on HOP-92, 12.8 µM (inactive); in the assay on OVCAR-5, > 100 µM (inactive); in the assay on SW-620, > 100 µM (inactive).

With `O=S(=O)(c1ccccc1)c1ccc(-c2nc(-c3ccc4c(c3)Sc3ccccc3S4)cs2)cc1`, the GI50 is 15.9 µM (inactive) in the assay with HOP-62; > 100 µM with HCT-15; 11.7 µM (inactive) in the assay with SNB-19; > 100 µM (inactive) with KM12; 36.1 µM (inactive) in the assay with M14; > 100 µM (inactive) with RPMI-8226. Further, the GI50 was 31.6 µM (inactive) in the assay with MOLT-4; 15.8 µM (inactive) in the assay on RXF 393; 18.9 µM (inactive) in the assay with SK-OV-3; 8.69 µM (inactive) with Hs-578T; 32.9 µM (inactive) in the assay on SR; 49.5 µM (inactive) in the assay on SF-539. Moreover, the GI50 in the assay on NCI-H226 was 67 µM (inactive); in the assay with Malme-3M, 39.5 µM (inactive); with OVCAR-8 it was 71.9 µM (inactive); in the assay with HOP-92, 20.7 µM (inactive); in the assay on OVCAR-5 it was > 100 µM (inactive); in the assay on SW-620, > 100 µM (inactive).

Regarding `COc1cc(N(CCC#N)CCC#N)ccc1C(/N=N/c1cccc([N+](=O)[O-])c1)=N\NC(=O)c1ccc(C)cc1`, the GI50 is > 100 µM (inactive) in the assay on HOP-62; 80.2 µM with HCT-15; 67.5 µM (inactive) in the assay with NCI/ADR-RES; > 100 µM (inactive) in the assay on SNB-19; > 100 µM (inactive) in the assay with KM12; > 100 µM (inactive) in the assay with M14. Also, the GI50 in the assay with RPMI-8226 was 18.6 µM (inactive); with SK-MEL-5, 59 µM (inactive); in the assay on MOLT-4 it was 16.9 µM (inactive); with RXF 393, > 100 µM (inactive); with SK-OV-3, > 100 µM (inactive); with Hs-578T it was > 100 µM (inactive). Moreover, the GI50 in the assay on NCI-H226 is > 100 µM (inactive); in the assay on Malme-3M it was > 100 µM (inactive); with OVCAR-8, 89.5 µM (inactive); in the assay on HOP-92, 33.9 µM (inactive); in the assay with OVCAR-5 it was > 100 µM (inactive); with SW-620, > 100 µM (inactive).

Consider `CC(=O)Nc1ccc(OC/C(N)=N/NC(=O)c2ccncc2)cc1`, for which the GI50 in the assay with HOP-62 was > 100 µM (inactive); with HCT-15, > 100 µM; in the assay on NCI/ADR-RES, > 100 µM (inactive); in the assay on SNB-19 it was > 100 µM (inactive); with KM12, > 100 µM (inactive); with M14, > 100 µM (inactive). Also, the GI50 in the assay with RPMI-8226, in the assay on MOLT-4, in the assay with RXF 393, with SK-OV-3, in the assay on Hs-578T and in the assay on SF-539 was > 100 µM (inactive) in each case. Further, the GI50 with OVCAR-8, with HOP-92, with OVCAR-5 and in the assay with SW-620 was > 100 µM (inactive) in each case.

For the compound `Nc1ncnc2c1ncn2C1CCC(CP(=O)(O)O)C1` (centres undefined), the GI50 is > 100 µM (inactive) in the assay with HOP-62; > 100 µM with HCT-15; > 100 µM (inactive) in the assay on NCI/ADR-RES; > 100 µM (inactive) with SNB-19; > 100 µM (inactive) in the assay on KM12; > 100 µM (inactive) in the assay with M14. The GI50 in the assay on RPMI-8226, in the assay with SK-MEL-5, in the assay with RXF 393, in the assay on SK-OV-3, in the assay on Hs-578T and with SF-539 was > 100 µM (inactive) each time. For the same compound, the GI50 in the assay on NCI-H226, with Malme-3M, in the assay on OVCAR-8, in the assay on OVCAR-5 and in the assay with SW-620 was > 100 µM (inactive) throughout.

Consider `CCCCCCCCCC(=O)CC(=O)c1c(O)cc(O)cc1O`, for which the GI50 in the assay with HOP-62 is 13.6 µM (inactive); in the assay on HCT-15, 18.2 µM; with NCI/ADR-RES, 16.6 µM (inactive); in the assay with SNB-19 it was 22.6 µM (inactive); in the assay with KM12, 18.1 µM (inactive); with M14, 17.1 µM (inactive). The GI50 in the assay with RPMI-8226 was 16.1 µM (inactive); with SK-MEL-5 it was 15.3 µM (inactive); in the assay on MOLT-4, 12.9 µM (inactive); with RXF 393 it was 11.7 µM (inactive); in the assay on SK-OV-3, 35 µM (inactive); in the assay on Hs-578T, 18.5 µM (inactive). The GI50 with SF-539 was 19.5 µM (inactive); with NCI-H226 it was 16.2 µM (inactive); in the assay on Malme-3M it was 14.4 µM (inactive); in the assay with OVCAR-8, 17.3 µM (inactive); in the assay with HOP-92, 20 µM (inactive); with OVCAR-5 it was 19.4 µM (inactive). Besides, in the assay on SW-620, the GI50 was 25.6 µM (inactive).

Consider `O=c1[nH]cc(-c2c[nH]c3ccccc23)nc1-c1c[nH]c2ccccc12`, for which the GI50 was 12.5 µM (inactive) with HOP-62; 11.1 µM in the assay with HCT-15; 16.4 µM (inactive) with NCI/ADR-RES; 15.8 µM (inactive) with SNB-19; 4.95 µM (inactive) in the assay with KM12; 10.7 µM (inactive) in the assay on M14. For the same compound, the GI50 was 9.73 µM (inactive) in the assay with RPMI-8226; 13.4 µM (inactive) in the assay on SK-MEL-5; 2.74 µM (inactive) in the assay with RXF 393; 13.4 µM (inactive) in the assay with SK-OV-3; 14.2 µM (inactive) in the assay on Hs-578T; 8.63 µM (inactive) in the assay with SF-539. In addition, the GI50 in the assay with Malme-3M is 11.2 µM (inactive); in the assay on OVCAR-8, 12.8 µM (inactive); in the assay with HOP-92 it was 12.3 µM (inactive); with OVCAR-5 it was 11.2 µM (inactive); with SW-620 it was 4.9 µM (inactive).

As for `N=C(/C=C/c1ccc(-c2cn3cc(/C=C/C(=N)N4CCOCC4)ccc3n2)cc1)N1CCOCC1`, the GI50 is > 100 µM (inactive) in the assay with HOP-62; > 100 µM with HCT-15; > 100 µM (inactive) in the assay on NCI/ADR-RES; > 100 µM (inactive) in the assay with SNB-19; > 100 µM (inactive) in the assay on KM12; > 100 µM (inactive) in the assay on M14. Further, the GI50 is 76.4 µM (inactive) in the assay on RPMI-8226; > 100 µM (inactive) in the assay with SK-MEL-5; > 100 µM (inactive) in the assay with RXF 393; > 100 µM (inactive) with SK-OV-3; > 100 µM (inactive) in the assay with Hs-578T; > 100 µM (inactive) in the assay with SF-539. The GI50 in the assay on NCI-H226, with Malme-3M, in the assay on OVCAR-8, in the assay on HOP-92, in the assay with OVCAR-5 and in the assay on SW-620 was > 100 µM (inactive) in each case.

In the case of `Cc1cc(N(CCC#N)CCC#N)ccc1C(/N=N/c1ccc([N+](=O)[O-])cc1)=N\NC(=O)c1cc(Cl)ccc1C(=O)c1ccccc1`, the GI50 in the assay on HOP-62 was 18.4 µM (inactive); in the assay on HCT-15 it was 4.8 µM; in the assay with NCI/ADR-RES it was 12.2 µM (inactive); in the assay on SNB-19, 46.7 µM (inactive); with KM12, 9.1 µM (inactive); with M14, 17.5 µM (inactive). Besides, the GI50 in the assay with RPMI-8226 is 11 µM (inactive); in the assay with SK-MEL-5, 12 µM (inactive); in the assay on MOLT-4, 4.65 µM (inactive); with RXF 393, 13 µM (inactive); in the assay with SK-OV-3 it was 13.5 µM (inactive); in the assay on Hs-578T it was 17.4 µM (inactive). In addition, the GI50 with NCI-H226 is 10 µM (inactive); in the assay with Malme-3M, 13.2 µM (inactive); in the assay with OVCAR-8, 6.21 µM (inactive); with OVCAR-5 it was 26.1 µM (inactive); with SW-620 it was 8.65 µM (inactive).

Consider `CC1=NN(c2nc(N)nc(CSc3cc(Cl)c(C)cc3S(N)(=O)=O)n2)C(C)(C)C1`, for which the GI50 with HOP-62 is > 10 µM (inactive); with HCT-15 it was > 10 µM; in the assay with NCI/ADR-RES, > 10 µM (inactive); with SNB-19 it was > 10 µM (inactive); with KM12, > 10 µM (inactive); in the assay with M14, > 10 µM (inactive). Moreover, the GI50 in the assay on RPMI-8226, in the assay on SK-MEL-5, in the assay on MOLT-4, in the assay with RXF 393, in the assay with SK-OV-3 and in the assay on Hs-578T was > 10 µM (inactive) in each case. In addition, the GI50 in the assay with SF-539, in the assay with NCI-H226, in the assay with Malme-3M, in the assay with OVCAR-8, in the assay with OVCAR-5 and in the assay on SW-620 was > 10 µM (inactive) throughout.

These data come from ChEMBL document CHEMBL1201862, “PubChem BioAssay data set” (2004).
